Source: patent publication US20260274832A1, “COMPOUNDS AND THEIR USE IN TREATING CANCER” (ASTRAZENECA AB, priority 2023, published 2026)

What was measured:
[1] = biological target: T1, AR (AR-full length) in LNCaP cells (Homo sapiens, UniProt P10275, T878A); test: LNCaP Androgen Receptor Imaging Assay (immunofluorescence of endogenous nuclear AR); type: cell-based; details: 24 h incubation; for DC50: concentration giving 50% of maximum degradation of AR per curve fit, single experiment or average of two or more; for LNCaP AR Degradation Dmax / Dmax: maximum degradation observed, normalized as % of positive control (prior art AR PROTAC at 3 μM); for Dmax: LNCaP
T1 construct: the prostate cancer cell line LNCaP (expressing AR-full length); endogenous in cells; host or cells: LNCaP
Outline: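 LNCaP cells (12,000/well) received a 12-point compound dose series (0.3% DMSO) for 24 h at 37° C., then were PFA-fixed and stained for AR (AR441) and nuclei (DRAQ5). Nuclear AR was quantified by imaging, normalized to a 3 μM AR PROTAC control; DC50 and Dmax came from Hill/bell curve fits.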

[2] = biological target: T2, AR (L702H) in LNCaP cells (Homo sapiens, UniProt P10275, L702H/T878A); test: LNCaP Androgen Receptor L702H Imaging Assay (LNCaP cells engineered by CRISPR/Cas9); type: cell-based; details: LNCaP cells with AR L702H mutation, 24 h incubation; for DC50: concentration giving 50% of maximum degradation of AR (L702H) per curve fit; for LNCaP AR (L702H) Degradation Dmax / Dmax: maximum degradation observed, normalized as % of positive control; for Dmax: LNCaP
T2 construct: engineered to introduce the mutation L702H into the AR gene using CRISPR/Cas9; endogenous in cells; host or cells: LNCaP cells edited by CRISPR/Cas9 at the AR gene
Outline: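 CRISPR-engineered LNCaP cells carrying AR L702H were treated 24 h at 37 °C with a 12-point compound dose response (0.3% DMSO), then fixed and immunostained for AR with DRAQ5 nuclear counterstain. Nuclear AR was quantified by imaging, normalized to positive control; DC50 and Dmax came from Hill or bell-shaped fits.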

T2 sequence (P10275 whole entry L702H/T878A): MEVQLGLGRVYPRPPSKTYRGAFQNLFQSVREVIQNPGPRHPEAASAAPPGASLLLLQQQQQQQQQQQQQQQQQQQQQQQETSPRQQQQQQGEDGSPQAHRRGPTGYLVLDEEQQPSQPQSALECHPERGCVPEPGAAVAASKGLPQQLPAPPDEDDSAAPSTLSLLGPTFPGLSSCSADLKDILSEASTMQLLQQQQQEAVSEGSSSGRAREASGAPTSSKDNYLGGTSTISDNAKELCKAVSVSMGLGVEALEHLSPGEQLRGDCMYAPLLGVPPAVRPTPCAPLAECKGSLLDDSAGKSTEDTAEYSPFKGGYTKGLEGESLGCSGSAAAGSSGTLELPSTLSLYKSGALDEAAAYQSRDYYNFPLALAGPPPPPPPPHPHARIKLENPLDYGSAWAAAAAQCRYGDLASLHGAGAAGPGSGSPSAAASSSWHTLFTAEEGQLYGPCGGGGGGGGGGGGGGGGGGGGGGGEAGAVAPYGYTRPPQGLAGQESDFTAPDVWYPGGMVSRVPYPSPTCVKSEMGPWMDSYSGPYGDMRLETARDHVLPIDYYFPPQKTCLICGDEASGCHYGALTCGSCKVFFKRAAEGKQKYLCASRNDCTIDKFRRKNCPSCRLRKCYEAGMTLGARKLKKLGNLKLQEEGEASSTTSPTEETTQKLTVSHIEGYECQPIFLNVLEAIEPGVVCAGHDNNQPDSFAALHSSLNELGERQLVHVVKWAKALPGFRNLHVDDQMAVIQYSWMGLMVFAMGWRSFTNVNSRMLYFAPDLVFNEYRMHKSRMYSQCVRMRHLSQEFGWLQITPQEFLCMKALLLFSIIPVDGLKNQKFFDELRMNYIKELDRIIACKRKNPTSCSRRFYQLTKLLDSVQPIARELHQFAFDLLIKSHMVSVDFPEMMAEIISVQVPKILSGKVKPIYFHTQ
T2 sequence (Q96SW2 whole entry partner): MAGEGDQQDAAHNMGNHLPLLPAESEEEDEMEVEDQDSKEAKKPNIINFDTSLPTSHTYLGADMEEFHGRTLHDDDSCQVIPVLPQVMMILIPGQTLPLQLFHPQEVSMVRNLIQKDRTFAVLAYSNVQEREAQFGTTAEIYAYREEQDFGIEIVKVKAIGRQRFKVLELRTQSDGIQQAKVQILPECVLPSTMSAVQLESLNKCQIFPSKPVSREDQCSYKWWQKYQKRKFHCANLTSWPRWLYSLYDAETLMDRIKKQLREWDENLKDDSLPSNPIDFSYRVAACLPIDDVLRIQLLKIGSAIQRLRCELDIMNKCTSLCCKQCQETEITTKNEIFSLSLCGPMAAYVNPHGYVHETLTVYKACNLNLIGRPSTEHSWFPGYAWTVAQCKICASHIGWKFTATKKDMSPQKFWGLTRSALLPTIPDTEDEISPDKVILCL
T1 sequence (P10275 whole entry T878A): as the sequence (P10275 whole entry L702H/T878A) above, with H702L counted along it
T1 sequence (Q96SW2 whole entry partner): as the sequence (Q96SW2 whole entry partner) above

Structure (SMILES)	DC50 [1] [nM]	LNCaP AR Degradation Dmax [1] [%]	DC50 [2] [nM]	LNCaP AR (L702H) Degradation Dmax [2] [%]	Dmax [1] [%]	Dmax [2] [%]
Cc1ccc(N2CCC(c3ccc(OCCCCN4CCN(c5ccc6c(c5)CN(C5CCC(=O)NC5=O)C6=O)CC4)cc3)C2)c2[nH]cc(C#N)c12 (single isomer, unassigned) [Example 150, 7-{(3S*)-3-[4-(4-{4-[2-(2,6-Dioxopiperidin-3-yl)-1-oxo-2,3-dihydro-1H-isoindol-5-yl]piperazin-1-yl}butoxy)phenyl]pyrrolidin-1-yl}-4-methyl-1H-indole-3-carbonitrile]	14		893		82	50
Cc1ccc(N2CCC(c3ccc(OCCCCN4CCN(c5ccc6c(c5)CN(C5CCC(=O)NC5=O)C6=O)CC4)cc3)C2)c2[nH]cc(C#N)c12 (single isomer, unassigned) [Example 151, 7-{(3R*)-3-[4-(4-{4-[2-(2,6-Dioxopiperidin-3-yl)-1-oxo-2,3-dihydro-1H-isoindol-5-yl]piperazin-1-yl}butoxy)phenyl]pyrrolidin-1-yl}-4-methyl-1H-indole-3-carbonitrile]	18	67	497	42		
N#Cc1c[nH]c2c(N3CCC(c4ccc(N5CCC(CN6CCN(c7ccc8c(c7)CN(C7CCC(=O)NC7=O)C8=O)CC6)CC5)cc4)CC3)ccc(F)c12 (centres unmarked) [Example 2, 7-(4-{4-[4-({4-[2-(2,6-Dioxopiperidin-3-yl)-1-oxo-2,3-dihydro-1H-isoindol-5-yl]piperazin-1-yl}methyl)piperidin-1-yl]phenyl}piperidin-1-yl)-4-fluoro-1H-indole-3-carbonitrile]	6		5		96	101
N#Cc1c[nH]c2c(N3CCC(c4ccc(N5CCC(CN6CCC(n7ccc8c(N9CCC(=O)NC9=O)cccc87)CC6)CC5)cc4)CC3)ccc(F)c12 [Example 6, 7-(4-{4-[4-({4-[4-(2,4-Dioxo-1,3-diazinan-1-yl)-1H-indol-1-yl]piperidin-1-yl}methyl)piperidin-1-yl]phenyl}piperidin-1-yl)-4-fluoro-1H-indole-3-carbonitrile]	10		13		100	103
N#Cc1n[nH]c2c(N3CCC[C@@H](c4ccc(N5CCC(CN6CCC(n7ccc8c(N9CCC(=O)NC9=O)cccc87)CC6)CC5)cc4)C3)ccc(Cl)c12 [Example 9]	7		9		105	106
N#Cc1n[nH]c2c(N3CCC[C@@H](c4ccc(N5CCC(CN6CCN(c7ccc8c(c7)CN(C7CCC(=O)NC7=O)C8=O)CC6)CC5)cc4)C3)ccc(Cl)c12 (stereo partly drawn) [Example 10, 4-Chloro-7-[(3S)-3-{4-[4-({4-[2-(2,6-dioxopiperidin-3-yl)-1-oxo-2,3-dihydro-1H-isoindol-5-yl]piperazin-1-yl}methyl)piperidin-1-yl]phenyl}piperidin-1-yl]-1H-indazole-3-carbonitrile]	7		5		96	103
N#Cc1c[nH]c2c(N3CCC[C@@H](c4ccc(N5CCC(CN6CCN(c7ccc8c(c7)CN(C7CCC(=O)NC7=O)C8=O)CC6)CC5)cc4)C3)ccc(Cl)c12 (stereo partly drawn) [Example 12, 4-Chloro-7-[(3S)-3-{4-[4-({4-[2-(2,6-dioxopiperidin-3-yl)-1-oxo-2,3-dihydro-1H-isoindol-5-yl]piperazin-1-yl}methyl)piperidin-1-yl]phenyl}piperidin-1-yl]-1H-indole-3-carbonitrile]	6		12		95	97

Continued by falling DC50 [1], values first:

DC50 [1] [nM]	LNCaP AR Degradation Dmax [1] [%]	DC50 [2] [nM]	LNCaP AR (L702H) Degradation Dmax [2] [%]	Dmax [1] [%]	Dmax [2] [%]	Structure (SMILES)
93	85	67	75			N#Cc1c[nH]c2c(N3CCCC(c4ccc(N5CCC(CN6CCC(n7ccc8c(N9CCC(=O)NC9=O)cccc87)CC6)CC5)nn4)C3)ccc(Cl)c12 (single isomer, unassigned) [Example 122, 4-Chloro-7-[(3S*)-3-{6-[4-({4-[4-(2,4-dioxo-1,3-diazinan-1-yl)-1H-indol-1-yl]piperidin-1-yl}methyl)piperidin-1-yl]pyridazin-3-yl}piperidin-1-yl]-1H-indole-3-carbonitrile]
29		103		99	96	Cc1ccc(N2CCC(c3ccc(N4CCC(CN5CCC(n6ccc7c(N8CCC(=O)NC8=O)cccc76)CC5)CC4)cc3)CC2)c2[nH]cc(C#N)c12 [Example 8, 7-(4-{4-[4-({4-[4-(2,4-Dioxo-1,3-diazinan-1-yl)-1H-indol-1-yl]piperidin-1-yl}methyl)piperidin-1-yl]phenyl}piperidin-1-yl)-4-methyl-1H-indole-3-carbonitrile]
9		14		98	101	COc1cc(N2CCN(CC3CCN(c4ccc(C5CCN(c6ccc(Cl)c7c(C#N)c[nH]c67)CC5)cc4)CC3)CC2)cc2c1C(=O)N(C1CCC(=O)NC1=O)C2 (centres unmarked) [Example 7, 4-Chloro-7-(4-{4-[4-({4-[2-(2,6-dioxopiperidin-3-yl)-7-methoxy-1-oxo-2,3-dihydro-1H-isoindol-5-yl]piperazin-1-yl}methyl)piperidin-1-yl]phenyl}piperidin-1-yl)-1H-indole-3-carbonitrile]
9		18		102	105	N#Cc1c[nH]c2c(N3CCC[C@@H](c4ccc(N5CCC(CN6CCC(n7ccc8c(N9CCC(=O)NC9=O)cccc87)CC6)CC5)cc4)C3)ccc(Cl)c12 [Example 11]
8		12		103	110	N#Cc1c[nH]c2c(N3CCC(c4ccc(N5CCC(CN6CCC(n7ccc8c(N9CCC(=O)NC9=O)cccc87)CC6)CC5)cc4)CC3)ccc(Cl)c12 [Example 5, 4-Chloro-7-(4-{4-[4-({4-[4-(2,4-dioxo-1,3-diazinan-1-yl)-1H-indol-1-yl]piperidin-1-yl}methyl)piperidin-1-yl]phenyl}piperidin-1-yl)-1H-indole-3-carbonitrile]
7		6		107	109	Cn1c(C2CCN(CC3CCN(c4ccc([C@@H]5CCCN(c6ccc(Cl)c7c(C#N)c[nH]c67)C5)cc4)CC3)CC2)cc2ccc(N3CCC(=O)NC3=O)cc21 [Example 13, 4-Chloro-7-[(3S)-3-{4-[4-({4-[6-(2,4-dioxo-1,3-diazinan-1-yl)-1-methyl-1H-indol-2-yl]piperidin-1-yl}methyl)piperidin-1-yl]phenyl}piperidin-1-yl]-1H-indole-3-carbonitrile]
6		6		99	100	N#Cc1c[nH]c2c(N3CCC(c4ccc(N5CCC(CN6CCN(c7ccc8c(c7)CN(C7CCC(=O)NC7=O)C8=O)CC6)CC5)cc4)CC3)ccc(Cl)c12 (centres unmarked) [Example 1, 4-Chloro-7-(4-{4-[4-({4-[2-(2,6-dioxopiperidin-3-yl)-1-oxo-2,3-dihydro-1H-isoindol-5-yl]piperazin-1-yl}methyl)piperidin-1-yl]phenyl}piperidin-1-yl)-1H-indole-3-carbonitrile]
6		9		107	112	Cn1c(C2CCN(CC3CCN(c4ccc([C@@H]5CCCN(c6ccc(Cl)c7c(C#N)n[nH]c67)C5)cc4)CC3)CC2)cc2ccc(N3CCC(=O)NC3=O)cc21 [Example 14, 4-Chloro-7-[(3S)-3-{4-[4-({4-[6-(2,4-dioxo-1,3-diazinan-1-yl)-1-methyl-1H-indol-2-yl]piperidin-1-yl}methyl)piperidin-1-yl]phenyl}piperidin-1-yl]-1H-indazole-3-carbonitrile]
4	95	9	95			N#Cc1c[nH]c2c(N3CCCC(NC(=O)c4ccc(N5CCC(CN6CCN(c7ccc8c(c7)CN(C7CCC(=O)NC7=O)C8=O)CC6)CC5)cn4)C3)ccc(Cl)c12 (single isomer, unassigned) [Example 181, N-[(3S*)-1-(4-Chloro-3-cyano-1H-indol-7-yl)piperidin-3-yl]-5-[4-({4-[2-(2,6-dioxopiperidin-3-yl)-1-oxo-2,3-dihydro-1H-isoindol-5-yl]piperazin-1-yl}methyl)piperidin-1-yl]pyridine-2-carboxamide]
3		2		94	88	N#Cc1c[nH]c2c(N3CCCC(NC(=O)c4ccc(N5CCC(CN6CCN(c7ccc8c(c7)CN(C7CCC(=O)NC7=O)C8=O)CC6)CC5)cn4)C3)ccc(Cl)c12 (single isomer, unassigned) [Example 180, N-[(3R*)-1-(4-Chloro-3-cyano-1H-indol-7-yl)piperidin-3-yl]-5-[4-({4-[2-(2,6-dioxopiperidin-3-yl)-1-oxo-2,3-dihydro-1H-isoindol-5-yl]piperazin-1-yl}methyl)piperidin-1-yl]pyridine-2-carboxamide]
